Consider 24 compounds from patent US20260250290A1 (BRISTOL-MYERS SQUIBB COMPANY, priority 2023, published 2026).

Molecules are shown by their SMILES. Where a name gives a salt, the structure may show the parent alone.

By IC50 is commonly meant the concentration that gives 50% inhibition.

The target in this assay is T1, full length SGK1 (Homo sapiens, UniProt O00141).
T1 construct: 125 μM full length SGK1 (Life Technologies Part #PR7358A); purchased Life Technologies PR7358A
T1 sequence (O00141 1-431): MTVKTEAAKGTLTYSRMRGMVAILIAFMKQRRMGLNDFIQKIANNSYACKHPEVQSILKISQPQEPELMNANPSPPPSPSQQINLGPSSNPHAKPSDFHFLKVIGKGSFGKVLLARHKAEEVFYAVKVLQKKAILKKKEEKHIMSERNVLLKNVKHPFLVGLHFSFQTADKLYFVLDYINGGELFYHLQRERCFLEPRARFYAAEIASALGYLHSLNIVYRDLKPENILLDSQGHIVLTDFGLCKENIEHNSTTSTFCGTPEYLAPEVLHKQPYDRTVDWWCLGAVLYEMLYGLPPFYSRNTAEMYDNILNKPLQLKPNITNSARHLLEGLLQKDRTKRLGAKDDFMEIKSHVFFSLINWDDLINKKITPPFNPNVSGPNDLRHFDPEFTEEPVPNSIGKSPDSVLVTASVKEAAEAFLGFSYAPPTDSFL
In words: SGK1 inhibition Assay A (Caliper LabChip electrophoretic separation of fluorescent peptide substrate and phosphorylated product). The settings on record: Assay A; 20 μM ATP, 40 min incubation; read-out: SGK1 IC50. It is filed as biochemical.
As to `CCn1cc(-c2cc(N3CCC[C@@H](NC(=O)c4sc(Cl)cc4OCCN(C)C)C3)c3c(N)ncnn23)ccc1=O` [Example 682, (R)—N-(1-(4-amino-7-(1-ethyl-6-oxo-1,6-dihydropyridin-3-yl)pyrrolo[2,1-f][1,2,4]triazin-5-yl)piperidin-3-yl)-5-chloro-3-(2-(dimethylamino)ethoxy)thiophene-2-carboxamide], the IC50 came to 1.42 µM.

Regarding `CC(=O)N1CC=C(c2cc(N3CCC[C@@H](NC(=O)c4cccc(N5CC6(C5)CN(C(C)C)C6)n4)C3)c3c(N)ncnn23)C1` [Example 781, (R)-N-(1-(7-(1-acetyl-2,5-dihydro-1H-pyrrol-3-yl)-4-aminopyrrolo[2,1-f][1,2,4]triazin-5-yl)piperidin-3-yl)-6-(6-isopropyl-2,6-diazaspiro[3.3]heptan-2-yl)picolinamide], the concentration for half-maximal inhibition (IC50) was found to be 0.005 µM. As for `Cc1nc(OCCN(C)C)c(C(=O)N[C@@H]2CCCN(c3cc(-c4ccc(C#N)nc4)n4ncnc(N)c34)C2)s1` [Example 354, (R)-N-(1-(4-amino-7-(6-cyanopyridin-3-yl)pyrrolo[2,1-f][1,2,4]triazin-5-yl)piperidin-3-yl)-4-(2-(dimethylamino)ethoxy)-2-methylthiazole-5-carboxamide], the half-inhibitory concentration (IC50) stood at 0.006 µM.

As to `CN(C)CCOc1cc(Cl)sc1C(=O)N[C@@H]1CCCN(c2cc(-c3cnn(C4CCOC4)c3)n3ncnc(N)c23)C1` (stereo partly drawn) [Example 275, N-((3R)-1-(4-amino-7-(1-(tetrahydrofuran-3-yl)-1H-pyrazol-4-yl)pyrrolo[2,1-f][1,2,4]triazin-5-yl)piperidin-3-yl)-5-chloro-3-(2-(dimethylamino)ethoxy)thiophene-2-carboxamide], the 50% inhibitory concentration (IC50) turned out to be 0.919 µM.

Consider `CS(=O)(=O)c1ccc(-c2cc(N3CCC[C@@H](NC(=O)c4cnc[nH]4)C3)c3c(N)ncnn23)cc1` [Example 37, (R)-N-(1-(4-amino-7-(4-(methylsulfonyl)phenyl)pyrrolo[2,1-f][1,2,4]triazin-5-yl)piperidin-3-yl)-1H-imidazole-5-carboxamide, TFA], for which the IC50 stood at 0.136 µM.

On to `CC(C)N1CCC(c2cc(C(F)F)sc2C(=O)N[C@@H]2CCCN(c3cc(-c4ccc(C#N)nc4)n4ncnc(N)c34)C2)CC1` [Example 397, (R)-N-(1-(4-amino-7-(6-cyanopyridin-3-yl)pyrrolo[2,1-f][1,2,4]triazin-5-yl)piperidin-3-yl)-5-(difluoromethyl)-3-(1-isopropylpiperidin-4-yl)thiophene-2-carboxamide], for which the half-inhibitory concentration (IC50) was 0.134 µM. On to `Cn1cc(C(=O)N[C@@H]2CCCN(c3cc(-c4ccc(S(C)(=O)=O)cc4)n4ncnc(N)c34)C2)cn1` [Example 28, (R)-N-(1-(4-amino-7-(4-(methylsulfonyl)phenyl)pyrrolo[2,1-f][1,2,4]triazin-5-yl)piperidin-3-yl)-1-methyl-1H-pyrazole-4-carboxamide], for which the concentration for half-maximal inhibition (IC50) came out at 0.032 µM. In the case of `CC(C)(C)OC(=O)N1CC=C(c2ccc(C(=O)N[C@@H]3CCCN(c4cc(-c5ccnc(C(F)F)c5)n5ncnc(N)c45)C3)s2)CC1` [Example 545, tert-butyl (R)-4-(5-((1-(4-amino-7-(2-(difluoromethyl)pyridin-4-yl)pyrrolo[2,1-f][1,2,4]triazin-5-yl)piperidin-3-yl)carbamoyl)thiophen-2-yl)-3,6-dihydropyridine-1(2H)-carboxylate], the 50% inhibitory concentration (IC50) is 0.022 µM. Under `NC(=O)c1ccc(-c2cc(N3CCC[C@@H](NC(=O)c4sc(Cl)cc4OCC4CCNCC4)C3)c3c(N)ncnn23)cn1` [Example 644, (R)-5-(4-amino-5-(3-(5-chloro-3-(piperidin-4-ylmethoxy)thiophene-2-carboxamido)piperidin-1-y1)pyrrolo[2,1-f][1,2,4]triazin-7-y1)picolinamide] stands 0.0004 µM; under `CC(=O)N1CC=C(c2cc(N3CCC[C@@H](NC(=O)c4sc(C(F)F)cc4OCCN(C)C)C3)c3c(N)ncnn23)C1` [Example 305, (R)-N-(1-(7-(1-acetyl-2,5-dihydro-1H-pyrrol-3-yl)-4-aminopyrrolo[2,1-f][1,2,4]triazin-5-yl)piperidin-3-yl)-5-(difluoromethyl)-3-(2-(dimethylamino)ethoxy)thiophene-2-carboxamide], 0.015 µM. The value for `Nc1ncnn2c(-c3ccnc(F)c3)cc(N3CCC[C@@H](NC(=O)c4cc(Cl)sc4Cl)C3)c12` [Example 157, (R)-N-(1-(4-amino-7-(2-fluoropyridin-4-yl)pyrrolo[2,1-f][1,2,4]triazin-5-yl)piperidin-3-yl)-2,5-dichlorothiophene-3-carboxamide] was 0.015 µM. Regarding `COC(=O)N1CC=C(c2cc(N3CCC[C@@H](NC(=O)c4sc(C(F)F)cc4OCCN(C)C)C3)c3c(N)ncnn23)C1` [Example 303, Methyl (R)-3-(4-amino-5-(3-(5-(difluoromethyl)-3-(2-(dimethylamino)ethoxy)thiophene-2-carboxamido)piperidin-1 - yl)pyrrolo [2,1-f][1,2,4]triazin-7-yl)-2,5-dihydro-1H-pyrrole-1-carboxylate], the IC50 amounted to 0.01 µM. With `CC(=O)N1CC=C(c2cc(N3CCC[C@@H](NC(=O)c4csc(-c5cccnc5)n4)C3)c3c(N)ncnn23)C1` [Example 450, (R)-N-(1-(7-(1-acetyl-2,5-dihydro-1H-pyrrol-3-yl)-4-aminopyrrolo[2,1-f][1,2,4]triazin-5-yl)piperidin-3-yl)-2-(pyridin-3-yl)thiazole-4-carboxamide], the IC50 was found to be 0.053 µM. Under `CC(=O)N1CC=C(c2cc(N3CCC[C@@H](NC(=O)c4sc(C5CC5)cc4OC4CCN(C(C)C)CC4)C3)c3c(N)ncnn23)C1` [Example 377, (R)-N-(1-(7-(1-acetyl-2,5-dihydro-1H-pyrrol-3-yl)-4-aminopyrrolo[2,1-f][1,2,4]triazin-5-yl)piperidin-3-yl)-5-cyclopropyl-3-((1-isopropylpiperidin-4-yl)oxy)thiophene-2-carboxamide] stands 0.035 µM; under `Nc1ncnn2c(C3=CCN(C(=O)C4CCS(=O)(=O)C4)C3)cc(N3CCC[C@@H](NC(=O)c4ccc(Cl)s4)C3)c12` (stereo partly drawn) [Example 905, N-((3R)-1-(4-amino-7-(1-(1,1-dioxidotetrahydrothiophene-3-carbonyl)-2,5-dihydro-1H-pyrrol-3-yl)pyrrolo[2,1-f][1,2,4]triazin-5-yl)piperidin-3-y1)-5-chlorothiophene-2-carboxamide], 0.011 µM. Turning to `N#Cc1ccc(-c2cc(N3CCC[C@@H](NC(=O)c4cc5cc(F)ccc5[nH]4)C3)c3c(N)ncnn23)cn1` [Example 515, (R)-N-(1-(4-amino-7-(6-cyanopyridin-3-yl)pyrrolo[2,1-f][1,2,4]triazin-5-yl)piperidin-3-yl)-5-fluoro-1H-indole-2-carboxamide], the IC50 stood at 0.13 µM. Regarding `N#Cc1ncc(-c2cc(N3CCC[C@@H](NC(=O)c4ccc(C(F)F)s4)C3)c3c(N)ncnn23)cn1` [Example 502, (R)-N-(1-(4-amino-7-(2-cyanopyrimidin-5-yl)pyrrolo[2,1-f][1,2,4]triazin-5-yl)piperidin-3-yl)-5-(difluoromethyl)thiophene-2-carboxamide], the half-inhibitory concentration (IC50) was 0.039 µM. The value for `Cc1ccc(C(=O)N[C@@H]2CCCN(c3cc(-c4ccc(S(C)(=O)=O)cc4)n4ncnc(N)c34)C2)cc1C` [Example 84, (R)-N-(1-(4-amino-7-(4-(methylsulfonyl)phenyl)pyrrolo[2,1-f][1,2,4]triazin-5-yl)piperidin-3-yl)-3,4-dimethylbenzamide, TFA] was 0.019 µM; that for `Nc1ncnn2c(-c3cncnc3)cc(N3CCC[C@@H](NC(=O)c4cc5ccccc5[nH]4)C3)c12` [Example 508, (R)-N-(1-(4-amino-7-(pyrimidin-5-yl)pyrrolo[2,1-f][1,2,4]triazin-5-yl)piperidin-3-yl)-1H-indole-2-carboxamide] was 0.195 µM. Under `Nc1ncnn2c(C3=CCN(C(=O)[C@@H]4CCCNC4)C3)cc(N3CCC[C@@H](NC(=O)c4ccc(Cl)s4)C3)c12` [Example 901, N-((R)-1-(4-amino-7-(1-((R)-piperidine-3-carbonyl)-2,5-dihydro-1H-pyrrol-3-y1)pyrrolo[2,1-f][1,2,4]triazin-5-y1)piperidin-3-y1)-5-chlorothiophene-2-carboxamide] stands 0.029 µM. The value for `Nc1ncnn2c(-c3ccc4nncn4c3)cc(N3CCC[C@@H](NC(=O)c4ccc(Cl)s4)C3)c12` [Example 252] was 0.004 µM; that for `Nc1ncnn2c(-c3ccnc(C(F)F)c3)cc(N3CCC[C@@H](NC(=O)c4sc(C(F)F)cc4OCCN4CCOCC4)C3)c12` [Example 337, (R)—N-(1-(4-amino-7-(2-(difluoromethyl)pyridin-4-yl)pyrrolo[2,1-f][1,2,4]triazin-5-yl)piperidin-3-yl)-5-(difluoromethyl)-3-(2-morpholinoethoxy)thiophene-2-carboxamide] was 0.014 µM; that for `NC(=O)c1ccc(-c2cc(N3CCC[C@@H](NC(=O)c4sc(Cl)cc4OCCN4CCOCC4)C3)c3c(N)ncnn23)cc1F` [Example 163, (R)-N-(1-(4-amino-7-(4-carbamoyl-3-fluorophenyl)pyrrolo [2,1-f][1,2,4]triazin-5-yl)piperidin-3-yl)-5-chloro-3-(2-morpholinoethoxy) thiophene-2-carboxamide, TFA] was 0.006 µM. For the compound `CS(=O)(=O)c1ccc(-c2cc(N3CCC[C@@H](NC(=O)c4ccc(F)c(F)c4)C3)c3c(N)ncnn23)cc1` [Example 26, (R)-N-(1-(4-amino-7-(4-(methylsulfonyl)phenyl)pyrrolo [2,1-f][1,2,4]triazin-5-yl)piperidin-3-yl)-3,4-difluorobenzamide], the half-maximal inhibitory concentration (IC50) was found to be 0.019 µM.
